Data reported in patent US12297164B2, “Benzidine compound and application thereof” (Guangzhou IMD therapeutics Co., Ltd., priority 2019, dated 2025).

Assays:
RORγ [1] = molecular target: T1, RORγ (Homo sapiens (Human), UniProt P51449); test: AlphaScreen inhibitory activity on RORγ protein; assay type: biochemical; details: RORγ 200 nM, bSRC1-4 50 nM
Protocol: Experimental materials: target protein RORγ with the final concentration of 200 nM; experimental buffer (10×) MOPS (500 mM) PH 7.4, CHAPS (0.5 mM), NaF (500 mM), and
The mixture was centrifuged at room temperature at 1000 rpm for 1 minute to make the system fully mixed. After being wrapped in tin foil, the mixture was incubated in the dark for 1.5 hours.
Target sequence in this assay (P51449 whole entry): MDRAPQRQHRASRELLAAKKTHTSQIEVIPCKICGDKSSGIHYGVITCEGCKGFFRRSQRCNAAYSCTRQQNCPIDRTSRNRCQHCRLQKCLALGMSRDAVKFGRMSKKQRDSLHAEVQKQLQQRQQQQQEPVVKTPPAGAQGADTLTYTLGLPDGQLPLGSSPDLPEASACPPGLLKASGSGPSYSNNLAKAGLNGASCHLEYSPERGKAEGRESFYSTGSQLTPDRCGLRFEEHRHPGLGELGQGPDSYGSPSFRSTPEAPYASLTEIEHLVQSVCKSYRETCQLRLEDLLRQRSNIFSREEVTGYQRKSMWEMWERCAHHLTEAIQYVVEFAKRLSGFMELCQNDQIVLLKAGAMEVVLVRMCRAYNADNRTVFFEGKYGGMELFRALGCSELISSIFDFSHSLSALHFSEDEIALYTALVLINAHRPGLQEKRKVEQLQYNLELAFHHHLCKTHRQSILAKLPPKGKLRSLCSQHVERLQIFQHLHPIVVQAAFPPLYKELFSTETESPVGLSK

RORγ [2] = molecular target: T1, RORγ; test: Luciferase double reporter gene assay (Gal4-RORγLBD) in 293T cells; assay type: cell-based; details: 24 hours of incubation
Protocol: (§1) The cells were cultured in a 96-well plate one day before transfection, with a cell density of 1.5×10^4 cells/well. After 24 hours of adherent growth, the cells were subjected to transient transfection by using the method of double reporter gene co-transfection with the transfection reagent of Lipo-fectamine 2000, where the transfection reagent and plasmids were diluted with Opti-MEM reagent, respectively. […] Each sample had 3 duplicate wells.
Target sequence in this assay (P51449 269-508): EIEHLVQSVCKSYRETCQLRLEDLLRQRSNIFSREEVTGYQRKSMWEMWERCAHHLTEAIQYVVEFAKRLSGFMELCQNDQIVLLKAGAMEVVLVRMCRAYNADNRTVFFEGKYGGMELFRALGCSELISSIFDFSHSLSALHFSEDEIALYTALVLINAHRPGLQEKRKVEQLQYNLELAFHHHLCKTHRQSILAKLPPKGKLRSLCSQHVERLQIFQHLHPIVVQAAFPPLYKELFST

RORγ [3] = molecular target: T1, RORγ; test: TSA detection (thermal shift); assay type: binding; details: protein 10 μM
Protocol: Experimental materials: hRORγ protein, fluorescent dye Sypro Orange, 10p buffer, ultrapure water, and HSP-96 well reaction plates.
Experimental method: The diluted protein (with the final concentration of 10 μM), fluorescent dye (with the final concentration of 5×), 10× TSA buffer, and double distilled water were prepared into a mixed solution with final component volumes of 1 μL, 1 μL, 1 μL, and 2 μL, receptively. The mixed solution was transferred to an HSP-96 well reaction plate, 5 μL each well. The ligand, i.e., small molecule compound, was added, 5 μL per well, with the final concentration of 200 µM. The mixture was centrifuged at room temperature at 1000 rpm for 1 minute to make the system fully mixed. The mixture was placed on an ice bath in low light for more than 30 minutes, and after that, put into RT-PCR instrument for testing. The temperature was set from 30° C. to 80° C., and the mixture was detected every time the temperature was raised by 0.5° C. and every 5 seconds.
Target sequence in this assay (P51449 whole entry): as the sequence (P51449 whole entry) above

RORα = RORα (Homo sapiens (Human), UniProt P35398); test: Specificity luciferase reporter assay in 293T cells, RORα; assay type: cell-based; details: reporter gene
Protocol: as §1, with “and” for “where”

RORγ [4] = molecular target: T1, RORγ; test: ITC binding activity; details: read-out: Kd ITC, 25° C., pH 7.5
Target sequence in this assay (P51449 whole entry): as above

[5] = Pharmacokinetics in SD rats
Protocol: MATERIALS: Pharmacokinetic analysis was performed by Medicilon Corporation in Shanghai. Twelve Sprague and Dawley rats were provided by Super-B&K laboratory animal Corp. Ltd in Shanghai.
Experimental method: The compound was dissolved in DMSO:PEG 400:20% HP-400 (5:40:55, v:v:v) to serve as a stock solution (0.4 mg/ml, intravenous injection; 1 mg/ml, oral administration). The stock solution was administrated orally to three SD rats at a dose of 10 mg/kg, and administrated intravenously to three SD rats at a single dose of 2 mg/kg. Blood was collected from the jugular vein before oral administration and at 0.25, 0.5, 1, 2, 4, 6, 8, and 24 hours after oral administration. Blood was collected from the jugular vein before intravenous injection and at 0.083, 0.25, 0.5, 1, 2, 4, 6, 8, and 24 hours after intravenous injection. About 200 μL of blood sample was collected into a heparinized tube and immediately centrifuged at 8000 rpm for 6 minutes, and the resulting plasma was stored at −80° C. until analysis.

RORγ [6] = molecular target: T1, RORγ; test: Specificity luciferase reporter assay in 293T cells, RORγ; details: read-out: IC50 RORγ, reporter gene
Target sequence in this assay (P51449 269-508): as the sequence (P51449 269-508) above
Protocol: The cells were cultured in a 96-well plate one day before transfection, with a cell density of 1.5×10^4 cells/well. After 24 hours of adherent growth, the cells were subjected to transient transfection by using the method of double reporter gene co-transfection with the transfection reagent of Lipo-fectamine 2000, and the transfection reagent and plasmids were diluted with Opti-MEM reagent, respectively. Gal4-RORγLBD was 25 ng per well; PG5-luc gene was 25 ng per well; and Renilla was 5 ng per well. After 24 hours of co-transfection, different concentrations of compounds were added. After 24 hours of incubation, Luciferase double reporter gene detection kit was used to detect luminescence signals. Each sample had 3 duplicate wells. The IC50 value (half inhibitory concentration) was calculated by software.

[7] = test system: 293T (human renal epithelial cell line transfected with adenovirus E1A gene, expressing SV40 large T antigen); test: Cell-Titer GLO cell inhibition; assay type: cell-based; details: 293T
Protocol: (§2) Experimental materials: fluorescence signal detection instrument: EnSpire Alpha 2390 multifunctional microplate reader (produced by Perkin Elmer Company); 384-well bottom permeable microwell plate; Cell-Titer GLO luminescent reagent; cancer cells to be tested; medium and fetal bovine serum required for cell culture.
(§3) […]. After incubation with the compound for 72 to 144 hours, Cell-Titer GLO reagent 25-T was added to each well, and the plate was shaken for 20 minutes to lyse the cells. After incubation for 10 minutes, the cells were centrifuged for 1 minute, the signal value of luminescence 384 was measured. The inhibition curve was fitted by GraphPad Prism software to obtain IC50.

[8] = test system: A549 (non-small cell lung cancer); test: Cell-Titer GLO cell inhibition; assay type: cell-based
Protocol: as §2, §3

[9] = test system: Cos7 (African green monkey kidney cells); test: Cell-Titer GLO cell inhibition; assay type: cell-based; details: Cos7; read-out: IC50
Protocol: as §2, §3

[10] = test system: H1975 (lung cancer cells); test: Cell-Titer GLO cell inhibition; assay type: cell-based; details: H1975
Protocol: as §2, §3

HFL-1 (lung fibroblasts) = test: Cell-Titer GLO cell inhibition; assay type: cell-based; details: HFL-1; ~ = estimate; read-out: IC50
Protocol: as §2, §3

HT-29 (colon cancer) = test: Cell-Titer GLO cell inhibition; assay type: cell-based; details: read-out: IC50
Protocol: as §2, §3

[11] = test system: Hs578T (triple negative breast cancer); test: Cell-Titer GLO cell inhibition; assay type: cell-based; details: Hs578T
Protocol: as §2, §3

[12] = test system: MCF-7 (ER + breast cancer); test: Cell-Titer GLO cell inhibition; assay type: cell-based; details: MCF-7
Protocol: as §2, §3

MV-4-11 (acute leukemia) = test: Cell-Titer GLO cell inhibition; assay type: cell-based; details: MV-4-11; read-out: IC50
Protocol: as §2, §3

U2OS (osteosarcoma) = test: Cell-Titer GLO cell inhibition; assay type: cell-based
Protocol: as §2, §3

[13] = test system: VcaP (AR-positive prostate cancer); test: Cell-Titer GLO cell inhibition; assay type: cell-based; details: VcaP; 72 to 144 hours; read-out: IC50
Protocol: as §2, §3

[14] = test system: C4-2B (AR-positive prostate cancer); test: Cell-Titer GLO cell inhibition; assay type: cell-based; details: 72 to 144 hours
Text: (§4) The inhibition curve was fitted by GraphPad Prism software to obtain IC50.

[15] = test system: Du145 (AR-negative prostate cancer); test: Cell-Titer GLO cell inhibition; assay type: cell-based; details: Du145
Text: as §4

[16] = SD rats, intravenous injection, 2 mg/kg
[17] = Sprague-Dawley, rat, in vivo, iv, 2 mg/kg
[18] = Sprague-Dawley, rat, in vivo, po, 10 mg/kg

Sequence of RORα (P35398 whole entry): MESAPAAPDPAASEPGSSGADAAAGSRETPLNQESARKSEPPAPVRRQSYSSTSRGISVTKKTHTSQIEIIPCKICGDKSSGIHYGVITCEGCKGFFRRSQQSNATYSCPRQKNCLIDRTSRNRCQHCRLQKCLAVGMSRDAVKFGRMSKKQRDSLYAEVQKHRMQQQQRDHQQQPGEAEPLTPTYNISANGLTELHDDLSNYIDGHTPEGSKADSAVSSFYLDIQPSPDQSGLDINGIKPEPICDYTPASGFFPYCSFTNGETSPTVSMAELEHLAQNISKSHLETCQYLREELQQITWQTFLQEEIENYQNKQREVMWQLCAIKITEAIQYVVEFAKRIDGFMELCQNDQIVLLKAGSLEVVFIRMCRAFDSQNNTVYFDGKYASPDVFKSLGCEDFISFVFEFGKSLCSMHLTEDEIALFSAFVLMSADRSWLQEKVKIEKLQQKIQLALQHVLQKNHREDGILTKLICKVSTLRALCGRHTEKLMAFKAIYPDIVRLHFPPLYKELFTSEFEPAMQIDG

Work on `Nc1ccc(CC(=O)Nc2ccc(-c3ccc(C(O)(C(F)(F)F)C(F)(F)F)cc3F)cc2)cc1` [Example 5, 2-(4-aminophenyl)-N-(2′-fluoro-4′-(1,1,1,3,3,3-hexafluoro-2-hydroxypropan-2-yl)-[1,1′-biphenyl]-4-yl)acetamide] yielded an IC50 (RORγ [1]) of 2.68 µM, an IC50 (RORγ [2]) of 4.16 µM and a ΔTm (RORγ [3]) of 1.5 °C.

With `O=C(Cc1ccccc1[N+](=O)[O-])Nc1ccc(-c2ccc(C(O)(C(F)(F)F)C(F)(F)F)cc2F)cc1` [Example 4, N-(2′-fluoro-4′-(1,1,1,3,3,3-hexafluoro-2-hydroxypropan-2-yl)-[1,1′-biphenyl]-4-yl)-2-(2-nitrophenyl)acetamide] the IC50 (RORγ [1]) was 3.46 ± 1.32 µM, the IC50 (RORγ [2]) was 0.19 µM and the ΔTm (RORγ [3]) was 4.2 °C. For the same compound, the “inhibitory rate on RORα” value (RORα) was 37%, the IC50 (RORα; NA = no inhibitory effect) was 7.57 ± 0.01 µM and the Kd (RORγ [4]) was 0.78 µM. For the same compound, the Cl [5, 16] was 5.4445 ± 1.543 mL/min/kg, the Tmax [5, 16] was 0.19 ± 0.10 h and the Vz [5, 16] was 3.42 ± 0.594 L/kg. For the same compound, the F ([5]; SD rats, oral administration 10 mg/kg vs intravenous 2 mg/kg) was 19%, the AUC(0-inf) [5, 17] was 6440 ± 1720 ng·h/mL and the AUC(0-t) [5, 17] was 3330 ± 495 ng·h/mL. It also gave a Cmax [5, 17] of 839 ± 38.1 ng/mL, a half-life [5, 17] of 7.67 ± 2.36 h and an AUC(0-t) [5, 18] of 3220 ± 781 ng·h/mL. For the same compound, the Cmax [5, 18] was 721 ± 120 ng/mL, the Tmax [5, 18] was 8 h and the IC50 (RORγ [6]) was 0.19 ± 0.02 µM.

`O=C(Cc1ccc([N+](=O)[O-])cc1)Nc1ccc(-c2ccc(C(O)(C(F)(F)F)C(F)(F)F)cc2F)cc1` [Example 3, N-(2′-fluoro-4′-(1,1,1,3,3,3-hexafluoro-2-hydroxypropan-2-yl)-[1,1′-biphenyl]-4-yl)-2-(4-nitrophenyl)acetamide] showed an IC50 (RORγ [1]) of 4.85 ± 0.04 µM, an IC50 (RORγ [2]) of 1.49 µM and a ΔTm (RORγ [3]) of 6 °C.

For `OC(c1ccc(-c2ccc(CN3CCN(Cc4ccncc4)CC3)cc2)c(F)c1)(C(F)(F)F)C(F)(F)F` [SR2211, reference compound], the “inhibition rate (value in brackets)” value [7] was 67%, the IC50 ([7]; ~ = estimate, read-out: IC50) was roughly 80 µM and the “inhibition rate (value in brackets)” value [8] was 55%. The IC50 ([8]; ~ = estimate, read-out: IC50) was roughly 10 µM, the IC50 [9] was greater than 100 µM and the “inhibition rate (value in brackets)” value [10] was 41%. The IC50 ([10]; read-out: IC50) was 30.7 µM, the IC50 (HFL-1 (lung fibroblasts)) was greater than 50 µM and the IC50 (HT-29 (colon cancer)) was greater than 50 µM. The “inhibition rate (value in brackets)” value [11] was roughly 50%, the IC50 ([11]; ~ = estimate, read-out: IC50) was roughly 10 µM and the “inhibition rate (value in brackets)” value [12] was 42%. For the same compound, the IC50 ([12]; ~ = estimate, read-out: IC50) was roughly 9.98 µM, the IC50 (MV-4-11 (acute leukemia)) was 11.5 µM and the “inhibition rate (value in brackets)” value (U2OS (osteosarcoma)) was 52%. It also gave an IC50 (U2OS (osteosarcoma); ~ = estimate, read-out: IC50) of roughly 10 µM, an IC50 [13] of 37.6 µM and an IC50 [14] of 10.1 µM. The “inhibition rate (value in brackets)” value [15] was roughly 50% and the IC50 ([15]; 72 to 144 hours, ~ = estimate, read-out: IC50) was roughly 10 µM.
